The results in this text go back to paper PMC11945486, “TAS1R2/TAS1R3 Single-Nucleotide Polymorphisms Affect Sweet Taste Receptor Activation by Sweeteners: The SWEET Project” (Nutrients, 2025).

One may read the EC50 as the concentration giving half of the maximal effect.

This assay deals with T1, human TAS1R2-WT/TAS1R3-C757R (Homo sapiens, UniProt Q7RTX0+Q8TE23, C757R).
T1 construct: expressed in transfected cells; host or cells: HEK293T stably expressing Gα16gust44
T1 sequence (Q8TE23 20-839): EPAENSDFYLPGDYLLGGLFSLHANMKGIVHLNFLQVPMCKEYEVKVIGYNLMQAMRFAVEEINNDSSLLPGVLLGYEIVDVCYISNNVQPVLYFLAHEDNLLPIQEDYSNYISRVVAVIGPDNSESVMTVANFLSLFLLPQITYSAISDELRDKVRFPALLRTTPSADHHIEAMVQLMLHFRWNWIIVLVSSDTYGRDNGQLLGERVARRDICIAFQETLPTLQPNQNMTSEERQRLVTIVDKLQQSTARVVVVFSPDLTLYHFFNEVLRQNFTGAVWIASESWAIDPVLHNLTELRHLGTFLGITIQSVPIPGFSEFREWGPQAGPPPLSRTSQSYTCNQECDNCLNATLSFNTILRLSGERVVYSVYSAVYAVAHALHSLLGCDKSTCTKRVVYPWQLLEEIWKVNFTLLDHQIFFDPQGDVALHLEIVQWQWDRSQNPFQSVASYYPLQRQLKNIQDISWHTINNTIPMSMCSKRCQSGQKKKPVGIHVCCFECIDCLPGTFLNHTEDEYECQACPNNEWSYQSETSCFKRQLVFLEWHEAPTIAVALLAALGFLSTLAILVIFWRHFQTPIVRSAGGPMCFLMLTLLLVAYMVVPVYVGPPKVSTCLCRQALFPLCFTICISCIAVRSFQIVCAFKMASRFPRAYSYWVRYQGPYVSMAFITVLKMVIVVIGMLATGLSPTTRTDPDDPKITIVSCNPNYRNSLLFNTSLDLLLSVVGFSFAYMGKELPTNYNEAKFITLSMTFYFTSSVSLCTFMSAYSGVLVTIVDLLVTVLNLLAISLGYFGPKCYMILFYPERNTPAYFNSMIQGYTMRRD
T1 sequence (Q7RTX0 21-852 C757R): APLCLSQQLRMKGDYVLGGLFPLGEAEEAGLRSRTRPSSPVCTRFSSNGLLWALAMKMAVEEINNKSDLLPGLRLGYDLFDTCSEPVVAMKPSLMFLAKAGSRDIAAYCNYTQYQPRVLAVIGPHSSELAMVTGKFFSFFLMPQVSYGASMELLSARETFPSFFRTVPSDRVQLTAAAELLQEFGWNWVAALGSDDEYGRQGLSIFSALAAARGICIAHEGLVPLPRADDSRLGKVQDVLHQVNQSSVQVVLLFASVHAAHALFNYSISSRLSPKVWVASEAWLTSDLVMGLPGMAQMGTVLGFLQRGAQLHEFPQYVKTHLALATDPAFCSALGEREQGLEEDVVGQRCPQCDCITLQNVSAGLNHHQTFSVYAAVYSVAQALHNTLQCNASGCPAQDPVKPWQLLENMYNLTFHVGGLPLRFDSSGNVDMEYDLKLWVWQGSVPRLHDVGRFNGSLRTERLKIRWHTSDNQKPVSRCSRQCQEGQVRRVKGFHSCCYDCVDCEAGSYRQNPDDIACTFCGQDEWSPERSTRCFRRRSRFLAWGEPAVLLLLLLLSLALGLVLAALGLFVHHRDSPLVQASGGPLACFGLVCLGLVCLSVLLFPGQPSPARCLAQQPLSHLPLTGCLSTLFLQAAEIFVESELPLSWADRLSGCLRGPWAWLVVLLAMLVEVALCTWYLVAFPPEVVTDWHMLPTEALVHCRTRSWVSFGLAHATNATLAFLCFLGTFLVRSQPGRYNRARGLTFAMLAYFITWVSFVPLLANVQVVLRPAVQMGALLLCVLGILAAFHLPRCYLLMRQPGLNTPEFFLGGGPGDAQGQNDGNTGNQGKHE
Kind of assay: Calcium mobilisation assay, TAS1R2-WT with TAS1R3 variant C757R. The class given is cell-based. The following applies: for Max ΔF/F0: maximal signal amplitude. An excerpt: The coding sequences for TAS1R2 and TAS1R3 were commercially synthesised, and the human codon was optimised for expression in human cells. The coding sequences of human TAS1R2 and TAS1R3 were subcloned and inserted into the mammalian expression vectors pcDNA6/myc-HisA and pcDNA4/myc-HisA (Invitrogen; Thermo Fisher Scientific; Illkirch, France) between the EcoRI and NotI restriction sites, generating the plasmids pcDNA6-TAS1R2 and pcDNA4-TAS1R3, respectively. To increase protein expression in mammalian cells, an upstream start codon was used, which was a sequence called MAX, corresponding to the QBI SP163 element also described in pcDNA4-HisMax (Invitrogen; Thermo Fisher Scientific; Illkirch, France). To measure the expression level of the receptor by immunohistochemistry, we used the FLAG sequence ([…]) in the C-terminal position, which encodes the FLAG tag epitope. SNP variants of TAS1R2 and TAS1R3 were constructed based on […], respectively, using site-directed mutagenesis (Genewiz; Leipzig, Germany).
The HEK293T cells were kindly provided by Jay P. Slack (Givaudan Flavors Corporation; Cincinnati, OH, USA). HEK293T cells stably transfected with Gα16gust44 [43, 67] were seeded in poly-D-lysine-coated clear-bottom black 96-well plates (0.35 × 10^5 cells/well) in high-glucose DMEM supplemented with 2 mM GlutaMAX, 10% dialysed foetal bovine serum with penicillin/streptomycin and G418 (400 μg/mL) at 37 °C and 6.3% CO2 in a humidified atmosphere as previously reported. […] As a negative control, HEK293T cells were mock-transfected with the empty expression vector. After a further 24 h of incubation, the HEK293T cells were washed with C1 buffer (130 mM NaCl, 5 mM KCl, 10 mM HEPES pH 7.4 and 2 mM CaCl2). The 96-well plates containing the cells were then stimulated with sweet-tasting compounds. […] Different concentration ranges were tested depending on the sweet compound injected. The Ca^2+ changes were expressed as fractional changes in fluorescent light intensity: ΔF/F = (F − F0)/F0, where F was the fluorescent light intensity at each point, and F0 was the value of emitted fluorescent light prior to stimulus application. To calculate dose–response relationships, the changes in fluorescence upon stimulus application were averaged, mock-subtracted and baseline-corrected. The dose–response data obtained were adjusted using a 4-parameter logistic equation. The half-maximal effective concentrations (EC50 values) and maximal signal amplitudes were calculated using SigmaPlot software (version 15.0) (Systat Software; San Jose, CA, USA).
For in vitro calcium mobilisation assay performed on hTAS1R2-SNPs, hTAS1R3-SNPs and mTAS1R3-I60T, 6 to 7 concentrations were tested for each sweet compound, plus buffer alone. All concentration–receptor combinations were measured in duplicate, and each experiment was repeated at least 4 times (8 wells/concentration). Results were expressed for each concentration as ΔF/F mean ± SEM and represented as dose–response curves.
A general note: Calcium assays in cells follow changes in intracellular calcium, usually with a dye or a luminescent sensor.

Read-outs that look alike come from different tables or passages of the source. No end group written: not given here.

For the molecule `C=C(C)[C@@H]1CC=C(/C=N/O)CC1` [Perillartine, perillartine], the “R1 = Variant EC50/WT EC50” value was determined as 0.6 and the “Max ΔF/F0” value is 1.23 ± 0.13. The EC50 (read-out: EC50) was 8.1 ± 2.6 µM.

For the molecule `O=S(=O)(O)NC1CCCCC1` [Cyclamate, cyclamate], under “read-out: EC50”, the EC50 turned out to be 1150 ± 54 µM.

Turning to `C=C1C[C@@]23CC[C@H]4[C@@](C)(CCC[C@@]4(C)C(=O)O[C@@H]4O[C@H](CO)[C@@H](O)[C@H](O[C@@H]5O[C@H](CO)[C@@H](O)[C@H](O)[C@H]5O)[C@H]4O[C@@H]4O[C@H](CO)[C@@H](O)[C@H](O)[C@H]4O)[C@@H]2CC[C@]1(O[C@@H]1O[C@H](CO)[C@@H](O)[C@H](O[C@@H]2O[C@H](CO)[C@@H](O)[C@H](O)[C@H]2O)[C@H]1O[C@@H]1O[C@H](CO)[C@@H](O)[C@H](O)[C@H]1O)C3` [Rebaudioside M, rebaudioside M], the “R1 = Variant EC50/WT EC50” value is reported as 0.6 and the “Max ΔF/F0” value is recorded as 1.13 ± 0.04. Besides, the EC50 (read-out: EC50) came to 24.3 ± 2.2 µM.

For `OC[C@H]1O[C@H](O[C@]2(CCl)O[C@H](CCl)[C@@H](O)[C@@H]2O)[C@H](O)[C@@H](O)[C@H]1Cl` [Sucralose], the “R1 = Variant EC50/WT EC50” value worked out at 1.0 and the “Max ΔF/F0” value stood at 0.84 ± 0.03. For the same molecule, the EC50 (read-out: EC50) was 113 ± 10 µM.

Turning to `CC1=CC(=O)NS(=O)(=O)O1` [Acesulfame K, acesulfame K], the “R1 = Variant EC50/WT EC50” value came out at 0.8 and the “Max ΔF/F0” value was 0.42 ± 0.01. The EC50 (read-out: EC50) is 468 ± 31 µM.

For the molecule “brazzein (QDKCKKVYENYPVSKCQLANQCNYDCKLDKHARSGECFYDEKRNLQCICDYCEY; ends and bridges not checked; cysteine pairing not given here; UniProt P56552 1-54, looked up) [sweet-tasting protein obtained by recombinant production using the yeast Pichia pastoris]”, the “R1 = Variant EC50/WT EC50” value is reported as 0.7 and the “Max ΔF/F0” value is reported as 0.86 ± 0.06. Moreover, the EC50 (brazzein) stood at 74.2 ± 1.9 µg/mL.

For the molecule thaumatin, the “R1 = Variant EC50/WT EC50” value was found to be 0.6 and the “Max ΔF/F0” value turned out to be 0.69 ± 0.05.

On to `COC(=O)[C@H](Cc1ccccc1)NC(=O)[C@H](CC(=O)O)NCCC(C)(C)C` [Neotame], for which the “R1 = Variant EC50/WT EC50” value stood at 0.7 and the “Max ΔF/F0” value amounted to 0.75 ± 0.03. The EC50 (read-out: EC50) was determined as 0.88 ± 0.12 µM.

Consider `C[C@H](CC[C@@H](O[C@@H]1O[C@H](CO[C@@H]2O[C@H](CO)[C@@H](O)[C@H](O)[C@H]2O)[C@@H](O)[C@H](O)[C@H]1O[C@@H]1O[C@H](CO)[C@@H](O)[C@H](O)[C@H]1O)C(C)(C)O)[C@H]1CC[C@@]2(C)[C@@H]3CC=C4[C@@H](CC[C@H](O[C@@H]5O[C@H](CO[C@@H]6O[C@H](CO)[C@@H](O)[C@H](O)[C@H]6O)[C@@H](O)[C@H](O)[C@H]5O)C4(C)C)[C@]3(C)[C@H](O)C[C@]12C` [Mogroside V, mogroside V], for which the “R1 = Variant EC50/WT EC50” value is given as 0.7 and the “Max ΔF/F0” value was found to be 1.03 ± 0.02. In addition, the EC50 (read-out: EC50) was 21.7 ± 1 µM.

`COc1ccc(CCC(=O)c2c(O)cc(O[C@@H]3O[C@H](CO)[C@@H](O)[C@H](O)[C@H]3O[C@@H]3O[C@@H](C)[C@H](O)[C@@H](O)[C@H]3O)cc2O)cc1O` [NHDC, neohesperidin dihydrochalcone]: the “R1 = Variant EC50/WT EC50” value came out at 0.7 and the “Max ΔF/F0” value is listed as 0.98 ± 0.01. In addition, where the note is “read-out: EC50”, the EC50 was 36.5 ± 16 µM.

B1: thaumatin (protein)
chain: ATFEIVNRCSYTVWAAASKGDAALDAGGRQLNSGESWTINVEPGTKGGKIWARTDCYFDDSGSGICKTGDCGGLLRCKRFGRPPTTLAEFSLNQYGKDYIDISNIKGFNVPMDFSPTTRGCRGVRCAADIVGQCPAKLKAPGGGCNDACTVFQTSEYCCTTGKCGPTEYSRFFKRLCPDAFSYVLDKPTTVTCPGSSNYRVTFCPTA
modifications: Eight disulfides
notes: sweet-tasting plant protein, E957
Consider B1, for which the EC50 (read-out: EC50) turned out to be 6.7 ± 1.4 µM.
